Where a name gives a salt, the structure may show the parent alone. Read-outs that look alike come from different tables or passages of the source.
Tests used:
Assay type in all cases: in vivo
[1] = tested on: wheat leaf rust, Puccinia recondita; assay: whole plant or invertebrate; settings: foliar; for pest or weed control at 280.212 g/ha: read-out: % Control (with 1" of rain), foliar, 0.25 lb., 1" of rain; for pest or weed control at 1120.85 g/ha: read-out: % Control (with 1" of rain), foliar, 1 lb., 1" of rain
[2] = tested on: wheat leaf rust, Puccinia recondita
[3] = tested on: wheat leaf rust, Puccinia recondita; assay: whole plant or invertebrate; settings: foliar; for pest or weed control at 280.212 g/ha: read-out: % Control (without rain), foliar, 0.25 lb.; for pest or weed control at 1120.85 g/ha: read-out: % Control (without rain), foliar, 1 lb.
[4] = tested on: wheat leaf rust, Puccinia recondita; assay: Foliar systemic activity on leaf rust
From the text: Another type of systemic test was run in which pots of approximately 5 inch high wheat plants were sprayed with varying concentrations of the test compound. Thirty-six hours later they were sprayed six minutes in a rain machine which amounted to about one inch of normal rainfall. The plants were then placed in a greenhouse for 7 days and then inoculated with a spore suspension of wheat leaf rust, Puccinia recondita. About 7 days later lesion counts were made on ten leaves representing the sprayed leaves and new growth from each replicate and compared with similar pots of wheat plants which were untreated with a chemical and the percent disease control determined. Disease control on the new growth is a measure of systemic activity. The commercial product known by the trademarked name Plantvax, which is 2,3-dihydro-5-carboxanilido-6-methyl-1,4-oxathiin-4,4-dioxide, was used as a standard.

Row | SMILES | pest or weed control at 280.212 g/ha [1] [%] | pest or weed control at 1120.85 g/ha [1] [%] | % Systemic Wheat Leaf Rust Control ([2]; 2.5 ppm in soil) [%] | % Systemic Wheat Leaf Rust Control ([2]; 5 ppm in soil) [%] | pest or weed control at 280.212 g/ha [3] [%] | pest or weed control at 1120.85 g/ha [3] [%] | % Rust Control, New growth ([4]; 1/2 lb./100 gal.) [%] | % Rust Control, Sprayed Leaf ([4]; 1/2 lb./100 gal.) [%] | % Rust Control, New growth ([4]; 1/6 lb./100 gal.) [%] | % Rust Control, Sprayed Leaf ([4]; 1/6 lb./100 gal.) [%] | % Rust Control, New growth ([4]; 1/12 lb./100 gal.) [%] | % Rust Control, Sprayed Leaf ([4]; 1/12 lb./100 gal.) [%] | % Systemic Wheat Leaf Rust Control ([2]; 10 ppm in soil) [%] | % Systemic Wheat Leaf Rust Control ([2]; 20 ppm in soil) [%] | % Control (with 1" of rain) ([1]; 0.25 lb.) [%] | % Control (with 1" of rain) ([1]; 1 lb.) [%] | % Control (without rain) ([3]; 0.25 lb.) [%] | % Control (without rain) ([3]; 1 lb.) [%]
1 | CCCn1cnnc1 [Example 1, 4-n-propyl-1,2,4-triazole] | 87 | 100 | 99 | 100 | 100 | 100 |  |  |  |  |  |  |  |  |  |  |  | 
2 | CCCCn1cnnc1 [Example 3, 4-n-butyl-1,2,4-triazole] | 100 | 100 | 100 | 100 | 100 | 100 | 100 | 99 | 98 | 99 | 85 | 97 | 100 |  |  |  |  | 
3 | CC(C)Cn1cnnc1 [Example 4, 4-isobutyl-1,2,4-triazole] | 30 | 60 |  |  | 95 | 95 |  |  |  |  |  |  |  | 100 |  |  |  | 
4 | CC(C)CCn1cnnc1 [Example 8, 4-isopentyl-1,2,4-triazole] | 98 | 100 |  |  | 98 | 99 |  |  |  |  |  |  |  | 100 |  |  |  | 
5 | CCCCCCn1cnnc1 [Example 9, 4-n-hexyl-1,2,4-triazole] | 100 | 100 | 77 | 92 | 100 | 100 |  |  |  |  |  |  |  |  |  |  |  | 
6 | COCCCn1cnnc1 [Example 46, 4-(3-methoxypropyl)-1,2,4-triazole] | 99 | 100 | 96 | 99 | 100 | 100 |  |  |  |  |  |  |  |  |  |  |  | 
7 | c1ccc(Cn2cnnc2)cc1 [Example 49, 4-benzyl-1,2,4-triazole] | 100 | 100 | 96 | 98 | 95 | 100 | 87 | 99 | 54 | 76 | 46 | 42 | 99 |  |  |  |  | 
8 | Clc1ccc(-n2cnnc2)cc1Cl [Example 57, 4-(3,4-dichlorophenyl)-1,2,4-triazole] | 40 | 60 | 54 |  | 80 | 90 |  |  |  |  |  |  | 68 |  |  |  |  | 
9 | Clc1ccc(-n2cnnc2)nc1 [Example 63, 4-(5-chloro-2-pyridyl)-1,2,4-triazole] | 45 | 85 |  |  | 90 | 95 |  |  |  |  |  |  |  | 95 |  |  |  | 
10 | CCCn1cnnc1S [Example 75, 3-mercapto-4-n-propyl-1,2,4-triazole] | 100 | 99 | 40 | 82 | 91 | 100 |  |  |  |  |  |  | 84 |  |  |  |  | 
11 | CCCCCn1cnnc1S [Example 78, 3-mercapto-4-n-pentyl-1,2,4-triazole] | 100 | 100 | 97 | 97 | 97 | 100 | 92 | 98 | 79 | 96 | 57 | 91 | 97 |  |  |  |  | 
12 | CCCCCCn1cnnc1S [Example 79, 3-mercapto-4-n-hexyl-1,2,4-triazole] | 100 | 100 | 0 | 0 | 100 | 100 | 65 | 96 | 48 | 88 | 38 | 85 | 54 |  |  |  |  | 
13 | Sc1nncn1Cc1ccccc1 [Example 84, 3-mercapto-4-benzyl-1,2,4-triazole] | 100 | 100 | 0 | 34 | 100 | 100 | 54 | 78 | 34 | 63 | 36 | 54 | 64 |  |  |  |  | 
14 | CCCCn1c(S)nnc1C(=O)O [Example 95, triethanolamine salt of 3-mercapto-4-n-butyl-5-carboxy-1,2,4-triazole] |  |  | 98 | 99 |  |  | 90 | 90 | 75 | 78 | 63 | 46 | 100 |  | 100 | 100 | 98 | 99
15 | CCCCn1c(S)nnc1C(=O)OCC [Example 98, sodium salt of 3-mercapto-4-butyl-5-ethoxycarbonyl-1,2,4-triazole] |  |  | 85 | 97 |  |  |  |  |  |  |  |  | 99 |  | 100 | 100 | 86 | 100
16 | CCCCn1c(SC(=S)N(C)C)nnc1C(=O)O [Example 101, 3-dimethylthiocarbamoylmercapto-4-n-butyl-5-carboxy-1,2,4-triazole] | 100 | 100 | 88 | 96 | 100 | 100 |  |  |  |  |  |  | 100 |  |  |  |  | 
17 | CCCCn1cnn(CCC#N)c1=S [Example 106, 2-(2-cyanoethyl)-4-n-butyl-1,2,4-triazoline-3-thione] | 99 | 100 | 82 | 86 | 100 | 100 |  |  |  |  |  |  | 92 |  |  |  |  | 
18 | CCCCn1cnnc1SC(=O)c1ccco1 [Example 124, 3-furoylmercapto-4-n-butyl-1,2,4-triazole] | 100 | 100 | 94 | 99 | 100 | 100 |  |  |  |  |  |  | 99 |  |  |  |  | 
19 | CCCCn1cnnc1SCC(=O)c1ccc(OC)cc1 [Example 125, 3-(p-methoxyphenacylmercapto)-4-n-butyl-1,2,4-triazole] | 20 | 30 | 55 | 68 | 50 | 60 |  |  |  |  |  |  | 44 |  |  |  |  | 
20 | N#CCCn1ncn(-c2ccccc2)c1=S [Example 126, 2-(2-cyanoethyl)-4-phenyl-1,2,4-triazoline-3-thione] | 83 | 96 |  |  | 93 | 96 | 42 | 13 | 27 | 0 | 0 | 0 |  |  |  |  |  | 
21 | O=[N+]([O-])c1ccc(Sc2nncn2-c2ccccc2)c([N+](=O)[O-])c1 [Example 128, 3-(2,4-dinitrophenylmercapto)-4-phenyl-1,2,4-triazole] | 84 | 90 |  |  | 100 | 100 |  |  |  |  |  |  |  |  |  |  |  | 
22 | COc1ccc(C(=O)Sc2nncn2-c2ccccc2)cc1 [Example 129, 3-(4-methoxybenzoylmercapto)-4-phenyl-1,2,4-triazole] | 100 | 99 |  |  | 100 | 100 |  |  |  |  |  |  |  |  |  |  |  | 
